Data reported in patent publication US7718170B2, “Alkaline phosphatase compositions to reduce skin cancer” (Essential Skincare, LLC, priority 2006, dated 2010).

B1: Purified PALP: human placental alkaline phosphatase purified to homogeneity from commercial Sigma-Aldrich PALP; it is 'PALP' in Table 2, b31 and b104 (protein, UniProt P05187 23-506, looked up)
Alkaline phosphatase, …: IIPVEEENPDFWNREAAEALGAAKKLQPAQTAAKNLIIFLGDGMGVSTVTAARILKGQKKDKLGPEIPLAMDRFPYVALSKTYNVDKHVPDSGATATAYLCGVKGNFQTIGLSAAARFNQCNTTRGNEVISVMNRAKKAGKSVGVVTTTRVQHASPAGTYAHTVNRNWYSDADVPASARQEGCQDIATQLISNMDIDVILGGGRKYMFRMGTPDPEYPDDYSQGGTRLDGKNLVQEWLAKRQGARYVWNRTELMQASLDPSVTHLMGLFEPGDMKYEIHRDSTLDPSLMEMTEAALRLLSRNPRGFFLFVEGGRIDHGHHESRAYRALTETIMFDDAIERAGQLTSEEDTLSLVTADHSHVFSFGGYPLRGSSIFGLAPGKARDRKAYTVLLYGNGPGYVLKDGARPDVTESESGSPEYRQQSAVPLDEETHAGEDVAVFARGPQAHLVHGVQEQTFIAHVMAFAACLEPYTACDLAPPAGTTD

Experiments:
[1] = test system: B16 mouse melanoma; assay: B16 mouse melanoma tumor growth (tumor volume by calipers); assay type: in vivo; conditions: for Tumor volumes; Day 8 after tumor transplantation: local cream 150 mg per application on days 8, 11, 13, 15, 18, 20, day 8 = start, mean of 5 animals
Excerpt: The B16 mouse melanoma tumors were developed in first generation hybrid BDF1 (C57 B1 female×DBA/2 male) adult female mice kept at specified pathogen free (SPF) hygienic level. These mice have the complete immune system. The human H-168 melanoma tumors were developed in the homozygous line of C.B.-171 cr scid/scid mice (with severely compromised immune deficiency) which is an inbred mutant strain. In each case, tumor tissue fragments of about 0.1-cm^3 were surgically implanted subcutaneously into the intrascapular region to develop the tumors. Each tumor fragment contained 1-1.5×10^6 cells. The animals were kept in macrolon cages on ventilated rack at 22-24° C. (50-60% humidity) with lighting regimen of 12/12 h light/dark. The animals had free access to tap water and were fed with sterilized standard diet (Charles River VRF1, Germany) ad libitum. The animals were taken care of according to the “Guiding Principle for the care and use of Animals” based upon the Helsinki declaration and they were approved by the local ethical committee.
The mice bearing the rapidly growing B16 melanoma tumors were used after 8-11 days of tumor transplantation, while mice bearing the slower growing H-168 melanoma were used after 17 days of transplantation. In either case, when the tumor-bearing mice were used, the size of the tumors was in the 0.3-0.6 cm^3 range; animals were selected so that in the same treatment group the difference in tumor size was no greater than 0.1 cm^3 PALP, TF, or AT were used topically in a cream alone or in combination; in each case, 150-mg cream was applied on the tumor and the vicinity of tumor area (with about 0.3-0.5 cm margin). The tumor volume was determined by using calipers; this technique is well known to one having ordinary skill in the art. Tumor volume was calculated according to the generally accepted formula: V=a^2×b×π/6, where “a” and “b” mean the shortest and longest diameter, respectively, of the measured tumor.
The aggressive B16 mouse melanoma model was developed as described under Example 3. On day 11 after transplantation of tumor cells, the animals were either remained untreated (Group 1) or were treated with 15 mg/kg highly purified PALP via subcutaneous administration (Group 2). In Group 3, the tumors were treated locally with 150-mg of cream containing 4 mg commercial PALP in 1 g of Vaselinum cholesteratum. In Group 4, the animals were treated simultaneously locally with commercial PALP containing cream and via subcutaneous injection with highly purified PALP. Each treatment was performed once daily for seven consecutive days (i.e., treatments were terminated on day 18). Locally administered PALP preparation, and to a somewhat smaller extent injected purified PALP, inhibited the growth of B16 melanoma. The inhibitory effects remained significant even on day 23, 5 days after the last treatment. When PALP preparations were simultaneously administered via both routes, the combined effects were greater than the individual effects. […] Alternatively, optimal effects could require the presence of all 3 proteins. Experiments presented later confirm that the inhibitory effects of purified PALP on melanoma growth are greater in the simultaneous presence of TF and AT.
The B16 mouse melanoma model was developed as described under Example 3. On day 8 after transplantation of tumor cells, the animals either remained untreated (Group 1) or in other animal groups the tumors were treated locally with creams (150 mg per application) containing active components as follows: Group 2, 0.4 mg of purified PALP per 1-g Vaseline; Group 3, 0.5 mg of purified partially iron-saturated TF per 1-g Vaseline; Group 4, 0.4 mg of PALP+0.5 mg TF per 1-g Vaseline; Group 5, 1.2 mg of purified AT per 1-g Vaseline; Group 6, 0.4 mg of PALP+0.5 mg TF+1.2 mg of purified AT per 1-g Vaseline; and Group 7, Vaselinum cholesteratum alone. Each treatment was performed once daily on days 8, 11, 13, 15, 18 and 20. […]

[2] = test system: B16 mouse melanoma; assay: as above; assay type: in vivo; conditions: subcutaneous injection
[3] = test system: B16 melanoma; assay: Lung metastasis of B16 melanoma (macroscopic lung colonies); assay type: in vivo, mouse; conditions: treatments from day 11, daily, counted 21 days after starting the treatments, 7 animals, parentheses = smallest and highest numbers in the group
Method: B16 melanoma cells are highly metastatic that are known to preferably form metastatic colonies in the lung. The goal of this experiment was to determine if any of the components present in commercial PALP or the mode of application affect the metastatic process.
The B16 melanoma model described under Example 3 was used. The treatments of mice bearing the rapidly growing B16 melanoma were started 11 days after tumor transplantation; additional treatments were performed on each day for six consecutive days. In each experimental group seven animals were used. In the first group, animal tumors were treated locally with 200 mg Vaseline (control group). In the second group, animal tumors were locally treated with 200 mg Vaseline cream containing 4 mg commercial PALP per 1-g Vaseline. In the third group, animals were subcutaneously injected commercial PALP (1.5 mg per animal or 60 mg per kg). In the fourth group, animals were treated with commercial PALP both locally and subcutaneously. In the fifth group, animals were subcutaneously injected highly purified PALP (0.35 mg per animal or 14 mg per 1 kg). In the sixth group, animals were subcutaneously injected partially iron-saturated human TF (0.4 mg per animal or 16 mg per 1 kg). In the seventh group, animal tumors were locally treated with 200 mg Vaseline cream containing 1.0 mg human TF per 1 g Vaseline. In the last group, the tumors were untreated during the entire period of experiment. The macroscopic colonies were counted in the lung (7 animals in each group) 21 days after starting the treatments. The data are presented in TABLE 5; numbers in the parentheses indicate the smallest and highest numbers of metastatic lung colonies in the same group.

[4] = test system: fibroblast; assay: Fibroblast proliferation in vitro after pre-heating of TF; assay type: cell-based; conditions: pre-heating at up to 75° C. for 30 min
Method: The stimulatory effects of TF on fibroblast proliferation in vitro are not altered by pre-heating it at up to 75° C. for 30 min. Thus, pre-heating of TF-containing compositions to enhance the effects of other components, such as PALP and AT will be unlikely to alter other effects of TF such as inhibition of melanoma growth.

[5] = Organ pathology in mice after repeated injection; assay type: in vivo; conditions: 16 mg/kg injected 15-times over a 3 weeks period
[6] = subcutaneous injection, CCDTHT 4.6 mg/kg once daily day 11-22, mean of 5 mice
[7] = local cream 150 mg per application on days 8, 11, 13, 15, 18, 20, mean of 5 animals
[8] = BDF1 mice, 5 days after the last treatment, mean of 7 animals
[9] = BDF1 mice, day 11 = start of treatment, once daily for seven consecutive days, mean of 7 animals
[10] = BDF1 mice, treated once daily from day 11 for seven days, mean of 7 animals
[11] = BDF1 mice, treated once daily from day 11 for seven days, treatments terminated on day 18, mean of 7 animals
[12] = BDF1 mice, treatments terminated on day 18, mean of 7 animals

| Molecule | Tumor volumes; Day 8 after tumor transplantation [1] [cm^3] | Tumor volumes; Day 11 after tumor transplantation [1, 7] [cm^3] | Tumor volumes; Day 13 after tumor transplantation [1, 7] [cm^3] | Tumor volumes; Day 15 after tumor transplantation [1, 7] [cm^3] | Tumor volumes; Day 18 after tumor transplantation [1, 7] [cm^3] | Tumor volumes; Day 20 after tumor transplantation [1, 7] [cm^3] | Tumor volumes; Day 23 after tumor transplantation [1, 8] [cm^3] | Tumor volumes; Day 11 after tumor transplantation [1, 9] [cm^3] | Tumor volumes; Day 14 after tumor transplantation [1, 10] [cm^3] | Tumor volumes; Day 16 after tumor transplantation [1, 10] [cm^3] | Tumor volumes; Day 18 after tumor transplantation [1, 11] [cm^3] | Tumor volumes; Day 21 after tumor transplantation [1, 12] [cm^3] | Number of lung colonies per lung* [3] | other results |
| --- | --- | --- | --- | --- | --- | --- | --- | --- | --- | --- | --- | --- | --- | --- |
| CC[N+](C)(CC)CCOCc1ccc2sc3ccccc3c(=O)c2c1.[I-] [CCDTHT, N,N-diethyl-N-methyl-2-[(9-oxo-9H-thioxanthen-2-yl)methoxy]-ethanaminium iodide] | – | – | – | – | – | – | – | – | – | – | – | – | – | Tumor volumes; Day 14 after tumor transplantation [1, 6]: 1.20 cm^3; Tumor volumes; Day 16 after tumor transplantation [1, 6]: 1.40 cm^3; Tumor volumes; Day 18 after tumor transplantation [1, 6]: 1.90 cm^3; Tumor volumes; Day 23 after tumor transplantation [1, 6]: 3.00 cm^3; Tumor volumes; Day 11 after tumor transplantation ([2]; CCDTHT 4.6 mg/kg once daily day 11-22, day 11 = start, mean of 5 mice): 0.83 cm^3; Tumor volumes; Day 21 after tumor transplantation ([2]; CCDTHT 4.6 mg/kg once daily day 11-22, mean of 5 mice): 2.60 cm^3 |
| AT: human α1-antitrypsin, essentially pure, purified from commercial PALP preparation | 0.42 | 0.83 | 1.60 | 2.55 | 3.48 | 4.80 | – | – | – | – | – | – | – | – |
| TF: human transferrin, partially iron-saturated, Sigma-Aldrich T 3309 | 0.34 | 0.79 | 1.38 | 2.19 | 3.07 | 3.83 | 3.88 | 0.71 | 1.00 | 1.13 | 2.00 | 3.12 | doubling | Number of lung colonies per lung* ([3]; listed as TF, local applications): 17 (10-21); Number of lung colonies per lung* ([3]; listed as TF, subcutaneous applications): 38 (29-44); Stimulatory effects on fibroblast proliferation in vitro after pre-heating [4]: not altered |
| B1 | – | – | – | – | – | – | 3.63 | 0.75 | 1.16 | 1.55 | 2.13 | 3.47 | 16 (9-18) | Pathological effects (cell death or immune cell infiltration) in liver, lung, heart, blood, kidney, muscle, brain, spleen, intestine [5]: has not caused any significant pathological effects |
